Structures are written as SMILES.

T1 sequence (P29274 whole entry): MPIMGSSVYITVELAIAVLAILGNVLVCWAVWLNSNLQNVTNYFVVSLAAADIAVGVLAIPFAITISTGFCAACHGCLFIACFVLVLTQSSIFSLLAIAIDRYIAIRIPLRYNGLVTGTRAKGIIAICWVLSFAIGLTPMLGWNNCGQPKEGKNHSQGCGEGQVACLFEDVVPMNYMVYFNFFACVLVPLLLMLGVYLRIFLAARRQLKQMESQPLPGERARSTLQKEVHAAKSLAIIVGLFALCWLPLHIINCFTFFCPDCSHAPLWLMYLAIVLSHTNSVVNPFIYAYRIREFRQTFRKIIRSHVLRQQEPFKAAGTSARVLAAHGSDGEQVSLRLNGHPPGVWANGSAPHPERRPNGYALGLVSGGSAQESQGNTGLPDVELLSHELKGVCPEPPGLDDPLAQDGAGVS

One test concerns the target T1, ADORA2A (Homo sapiens, UniProt P29274).
T1 construct: host or cells: HEK-293
In words: ADORA2A in vitro receptor assay, [3H]CGS-21680 radioligand binding. The note with it: human recombinant HEK-293 cells, 0.05 μM [3H] CGS-21680. The method, then: The methods employed in this study have been adapted from the scientific literature (Varani K, Gessi S, Dalpiaz A, Borea P A (1996) Br. J. Pharmacol. 117, 1693 Pharmacological and biochemical characterization of purified A2A adenosine receptors in human platelet membranes by [3H]CGS-21680 binding) to maximize reliability and reproducibility. Reference standards are run as an integral part of each assay to ensure the validity of the results obtained. Assays are performed under conditions described below. (assay number 200610, Ricerca Biosciences, LLC, Taipei, Taiwan). • Source: Human recombinant HEK-293 cells • Ligand: 0.05 μM [3H]
In general, inhibition refers to the change of the read-out against control, counted positive when it falls. For `C=CC1C(OC(=O)c2ccccc2)C2C(O)(C(=O)C1(C)O)C(OC(C)=O)CC1C(C)(C)C(O)C(OC(C)=O)C(OC(=O)c3ccccc3)C12C` (stereo not drawn) [[7], Neoorthosiphol A], the inhibition at 10 µM is 64%. Take `C=C[C@@]1(C)CC(=O)[C@H]2[C@](O)(C1=O)[C@H](OC(C)=O)C[C@H]1C(C)(C)[C@H](OC(=O)c3ccccc3)[C@H](OC(C)=O)[C@H](OC(=O)c3ccccc3)[C@@]12C` [[6], Orthosiphonone A]: the inhibition at 10 µM came out at 42%. Still for that read-out and setting: the value for `C=CC1C(OC(=O)c2ccccc2)C2C(O)(C(=O)C1(C)O)C(OC(C)=O)CC1C(C)(C)C(OC(C)=O)C(OC(C)=O)C(OC(=O)c3ccccc3)C12C` (stereo not drawn) [[8], Staminol A] was 42%; that for `C=C[C@@]1(C)C[C@@H](OC(=O)c2ccccc2)[C@@H]2[C@@]3(C)C=C(OC(C)=O)C(=O)C(C)(C)[C@@H]3C[C@@H](OC(C)=O)[C@@]2(O)C1=O` [[5], Orthosiphol D] was 52%. For `C=C[C@@]1(C)C[C@@H](OC(=O)c2ccccc2)[C@H]2[C@](O)(C1=O)[C@H](OC(C)=O)C[C@H]1C(C)(C)[C@H](O)[C@H](OC(C)=O)[C@H](OC(=O)c3ccccc3)[C@@]12C` [[4], Orthosiphol A], the inhibition at 10 µM worked out at 42%.

The next test deals with mature adult rat. In words: Social Recognition Test (SRT), in vivo. As to conditions: 3 mg/kg, same administration regime. The method, then: The method, which detects memory enhancing activity, follows that described by Lemaire et al. (Psychopharmacology, 115, 435-440, 1994). An unfamiliar juvenile rat was introduced into the individual home cage of a mature adult rat for 5 minutes. Following this first contact (C1), the juvenile was returned to its isolation cage, until a second contact of 5 minutes with the same mature adult rat (C2), 120 minutes later was allowed.
The time the adult rat spended investigating (sniffing, grooming, licking, closely following) the juvenile at each contact was recorded. A recognition index (=C2/C1) was calculated. Under such conditions, a mature adult rat fails to recognize the juvenile as familiar, as indicated by an absence of reduction in the duration of social investigatory behaviour at C2.
12 rats were studied per group (in total 3 groups, vehicle, test compound, positive control). The test was performed blind. The test compound (e.g. the extract according example 3) was evaluated at a dose of 1 g/kg administered p.o. immediately after Cl (i.e. 120 minutes before C2), and compared with a vehicle control group. The test substance was dispersed in 4% Cremophor El, (polyoxyethylated castor oil, BASF, Ludwigshafen, Germany) in physiological saline which served as the vehicle. […] Data were analyzed by comparing treated groups with appropriate control using unpaired Student's t tests. […]
In the case of `COc1cc2c(cc1OC)C(=O)C(CC1CCN(Cc3ccccc3)CC1)C2` (stereo not drawn) [Donepezil], the “effect of the positive control (presumably on the Recognition Index)” value is given as −28%.
